Data on one compound can be found in publication PMC7811125, “Red-shifted click beetle luciferase mutant expands the multicolor bioluminescent palette for deep tissue imaging” (iScience, 2020).

Counter-ions that a name gives are not always drawn.

The target in the assay is T1, Akaluc (Photinus pyralis, UniProt P08659).
T1 construct: Akaluc, multiply mutated firefly luciferase; stably expressed in HEK cells
The experiment in a line: live-cell bioluminescence imaging. The format is cell-based. The note with it: HEK cells expressing Akaluc; 0.1 mM substrate; 660 nm filter.

T1 sequence (P08659 whole entry): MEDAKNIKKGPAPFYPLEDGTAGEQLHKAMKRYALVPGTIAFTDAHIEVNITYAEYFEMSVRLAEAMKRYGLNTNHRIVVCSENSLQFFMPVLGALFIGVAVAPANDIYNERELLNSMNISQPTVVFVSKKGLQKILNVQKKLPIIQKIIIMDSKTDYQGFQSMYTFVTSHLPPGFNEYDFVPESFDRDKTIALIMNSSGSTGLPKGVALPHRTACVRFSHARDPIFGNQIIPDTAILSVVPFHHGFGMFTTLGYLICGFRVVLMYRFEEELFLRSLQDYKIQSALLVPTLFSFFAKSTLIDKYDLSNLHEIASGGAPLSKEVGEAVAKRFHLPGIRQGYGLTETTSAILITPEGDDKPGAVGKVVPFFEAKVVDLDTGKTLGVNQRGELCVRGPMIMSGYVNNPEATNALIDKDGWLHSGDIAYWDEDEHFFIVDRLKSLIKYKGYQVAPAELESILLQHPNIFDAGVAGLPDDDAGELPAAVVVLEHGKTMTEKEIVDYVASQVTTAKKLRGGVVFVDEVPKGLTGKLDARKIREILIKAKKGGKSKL

As to `CN(C)c1ccc(/C=C/C=C/C2=N[C@@H](C(=O)O)CS2)cc1` [AkaLumine-HCl], the live-cell bioluminescence imaging result was “Akaluc yielded the brightest photon emission with AkaLumine-HCl”.
